# Measured values taken from patent US20140357512A1, “HISTONE DEACETYLASE (HDAC) BIOMARKERS IN MULTIPLE MYELOMA” (priority 2013, published 2014).
# System: human myeloma cell line MM.1S
# Experiment: SILAC acetylated-lysine peptide profiling, HDAC inhibitor vs DMSO (light/heavy ratio)
# Format: cell-based
# From the text: An embodiment of the invention comprises utilizing the SILAC method in order to quantitate changes in protein expression between two or more populations of cells. The SILAC method is a technique based on mass spectrometry that detects differences in protein abundance among samples using non-radioactive isotopic labeling. The SILAC method is known in the art, and described in detail in Ong et al., “Stable Isotope Labeling by Amino Acids in Cell Culture, SILAC, as a Simple and Accurate Approach to Expression Proteomics”, Molecular & Cellular Proteomics, vol. 1, pp. 376-386 (2002), which is incorporated herein by reference in its entirety.
# Briefly, the SILAC method involves growing two populations of cells in cell culture. The first population of cells is grown in growth media containing normal amino acids (“normal media”). The second population of cells is grown in media lacking a standard essential amino acid (such as lysine), but is then supplemented with a non-radioactive, isotopically labeled form of that essential amino acid (such as lysine labeled with ^13C atoms, rather than normal ^12C atoms), which is called “heavy media”. When the two populations of cells are each growing in the medium, they incorporate the amino acids into all of their proteins. The growth of cells maintained in the heavy media is no different from that in normal media. All peptides containing the heavy amino acids are heavier than their normal counterparts. The cells from each of the two populations of cells are lysed. The lysates from each of the two cell populations are then combined. The combined cell lysates are then analyzed by mass spectrometry. Pairs of chemically identical peptides of different stable isotope composition can be differentiated in a mass spectrometer due to their difference in mass. The ratio of peak intensities in the mass spectrum for such peptide pairs reflects the abundance ratio for the two proteins.
# This example describes SILAC studies that were performed to compare the effects of three different HDAC inhibitors (Compound A, Compound B, and tubastatin A) to a control on a human multiple myeloma cell line. The HDAC inhibitors were also compared amongst themselves to determine differences in their effects.
# A human myeloma cell line MM.1S was grown using either ^12C (light) or ^13C (heavy) lysine containing culture medium. The “heavy” cells were treated with DMSO as the control, and the “light” cells were treated with a single HDAC inhibitor at 37° C. for 6 hours. The heavy and light cells were lysed, and the lysates were mixed in 1:1 ratio and digested with the protease trypsin. The acetylated lysine containing peptides (due to the action of the HDAC inhibitor) in the digested peptide pool were captured by a non-specific anti-acetylated lysine antibody cocktail (the antibodies identify both light and heavy acetylated peptides), and subjected to mass spectrometry analysis in order to identify thousands of individual peptides.
# Thousands of peptides were identified in pairs (^12C and ^13C) due to their known mass differences. The amino acid sequence and quantitative ratio (Light/Heavy) of a given peptide in two differentially treated cell lysates were then determined and annotated with their possible protein (gene) sources.
# As stated above, three HDAC inhibitors (Compound A, Compound B, and Tubastatin A) were used. Thus, the SILAC method was performed three times, with a different HDAC inhibitor compared to a control each time. Accordingly, there are three pairs of quantitative data in the table below, i.e., Compound A:DMSO, Compound B:DMSO, and Tubastatin A:DMSO. A cut-off of 1.30 fold of change (increase or decrease) was then used to determine “changed” or “+” in the table, and any peptides with a fold of change less than 1.3 fold were determined to be “unchanged” or “0” in the table. Those peptides that were not identified were marked as “NA” in the table. […]
compound,measurement,setting,value
"O=C(CCCCCCNC(=O)c1cnc(N(c2ccccc2)c2ccccc2)nc1)NO [Compound A, 2-(diphenylamino)-N-(7-(hydroxyamino)-7-oxoheptyl)pyrimidine-5-carboxamide]","light to heavy ratio (L/H ratio), log 2 scale, acetylated peptide KLQK(ac)AALLK (SEQ ID NO: 806)","Ribosomal protein L14 variant [132], gene RPL14, drug:DMSO",1.00
same,light to heavy ratio (L/H ratio) of acetylated peptide […](ac)R (SEQ ID NO: 334),"S1 IF1 type family protein [56], EIF1AXP1, drug:DMSO",0.00 log 2
same,L/H ratio of acetylated peptide LAELK(ac)QECLAR (SEQ ID NO: 94),"SARNP 17], log 2 scale, drug vs DMSO",0.00
same,L/H ratio of acetylated peptide (ac)ATETVELHK(ac)LK (SEQ ID NO: 93),"SARNP [10], log 2 scale, drug vs DMSO",0.00
same,L/H ratio of acetylated peptide ANLVFK(ac)EIEK (SEQ ID NO: 95),"SCP2 [438], log 2 scale, drug vs DMSO",0.00
same,L/H ratio of acetylated peptide EGQNWLEK(ac)K (SEQ ID NO: 96),"SEC11C [147], log 2 scale, drug vs DMSO",0.00
same,L/H ratio of acetylated peptide EHTALLK(ac)IEGVYAR,"SEQ ID NO: 630, 60S ribosomal protein L35a [29], RPL35A",0.49 log 2
same,L/H ratio of acetylated peptide FNDGSDEK(ac)KK,"SEQ ID NO: 631, ATP synthase subunit alpha mitochondrial [239], ATP5A1",0.49 log 2
same,L/H ratio of acetylated peptide FSK(ac)[…],"SEQ ID NO: 632, X-ray repair cross-complementing protein 5 [144], XRCC5",0.50 log 2
same,L/H ratio of acetylated peptide LTCEEEEEK(ac)IFGR,"SEQ ID NO: 633, Isoform Short of Probable global transcription activator SNF2L2 [1302], SMARCA2",0.51 log 2
same,L/H ratio of acetylated peptide NDEELNK(ac)LLGR,"SEQ ID NO: 634, Histone H2A type 1-B/E [96], HIST1H2AE, HIST1H2AB, HIST1H2AD, HIST1H2AG, HIST1H2AK, HIST1H2AL, HIST1H2AM, HIST1H2AJ, HIST1H2AI",0.52 log 2
same,L/H ratio of acetylated peptide ALEAVFGK(ac)YGR,"SEQ ID NO: 635, Heterogeneous nuclear ribonucleoprotein G [30], RBMX",0.52 log 2
same,L/H ratio of acetylated peptide TFK(ac)[…],"SEQ ID NO: 636, 60S ribosomal protein L3 [103], SNORD43, RPL3",0.52 log 2
same,L/H ratio of acetylated peptide YK(ac)[…],"SEQ ID NO: 637, Protein disulfide-isomerase [328], P4HB",0.52 log 2
same,L/H ratio of acetylated peptide NAEK(ac)YAEEDRR,"SEQ ID NO: 638, Stress-70 protein mitochondrial [567], HSPA9",0.52 log 2
same,L/H ratio of acetylated peptide […](ac)DR,"SEQ ID NO: 639, pyruvate dehydrogenase E1 component subunit alpha somatic form mitochondrial isoform 2 precursor [359], PDHA1",0.53 log 2
same,L/H ratio of acetylated peptide GVDPK(ac)FLR,"SEQ ID NO: 640, Ribosomal protein L29 [38], RPL29, RPL29P4",0.53 log 2
same,L/H ratio of acetylated peptide LIK(ac)DGLIIR,"SEQ ID NO: 641, 60S ribosomal protein L19 [46], RPL19",0.53 log 2
same,L/H ratio of acetylated peptide HLLPK(ac)IR,"SEQ ID NO: 642, 6-phosphogluconate dehydrogenase decarboxylating [253], PGD",0.53 log 2
same,L/H ratio of acetylated peptide LGK(ac)PSLVR,"SEQ ID NO: 643, TOB3 [280], ATAD3B",0.53 log 2
same,L/H ratio of acetylated peptide EQIYK(ac)LAK,"SEQ ID NO: 644, 40S ribosomal protein S13 [39], RPS13",0.54 log 2
same,L/H ratio of acetylated peptide VEYFLK(ac)WK,"SEQ ID NO: 645, Chromobox protein homolog 3 [50], CBX3",0.54 log 2
same,L/H ratio of acetylated peptide HYK(ac)TDFDK,"SEQ ID NO: 646, Isocitrate dehydrogenase [NADP] mitochondrial [275], IDH2",0.54 log 2
same,L/H ratio of acetylated peptide EGYAWAEDK(ac)EHCEEYGR,"SEQ ID NO: 647, tRNA-splicing ligase RtcB homolog [190], C22orf28",0.54 log 2
same,L/H ratio of acetylated peptide LAYIAHPK(ac)LGK,"SEQ ID NO: 648, Ribosomal protein L29 [103], RPL29, RPL29P4",0.55 log 2
same,L/H ratio of acetylated peptide IFSQETLTK(ac)AQILK,"SEQ ID NO: 649, Prenylcysteine oxidase 1 [415], PCYOX1",0.55 log 2
same,L/H ratio of acetylated peptide […](ac)QNK,"SEQ ID NO: 650, Dihydrolipoyl dehydrogenase mitochondrial [143], DLD",0.55 log 2
same,L/H ratio of acetylated peptide FYVK(ac)DHR,"SEQ ID NO: 651, CDGSH iron-sulfur domain-containing protein 1 [37], CISD1",0.55 log 2
same,L/H ratio of acetylated peptide SPVNTK(ac)SLFK,"SEQ ID NO: 652, Isoform 1 of DNA-dependent protein kinase catalytic subunit [1057], PRKDC",0.55 log 2
same,L/H ratio of acetylated peptide HIVK(ac)EFK,"SEQ ID NO: 653, Stress-70 protein mitochondrial [288], HSPA9",0.56 log 2
same,L/H ratio of acetylated peptide MYKEEGLK(ac)AFYK,"SEQ ID NO: 654, Isoform A of Phosphate carrier protein mitochondrial [214], SLC25A3",0.56 log 2
same,L/H ratio of acetylated peptide LDAQVK(ac)ELVLK,"SEQ ID NO: 655, Dolichyl-diphospho-oligosaccharide--protein glycosyltransferase subunit 1 precursor [598], RPN1",0.56 log 2
same,L/H ratio of acetylated peptide GYPTLK(ac)[…],"SEQ ID NO: 656, Thioredoxin domain-containing protein 5 [140], TXNDC5, MUTED, MUTED-TXNDC5",0.56 log 2
same,L/H ratio of acetylated peptide […](ac)EFR,"SEQ ID NO: 657, Isoform 1 of Clathrin heavy chain 1 [1264], CLTC",0.57 log 2
same,L/H ratio of acetylated peptide YK(ac)EALEQCR,"SEQ ID NO: 658, Isoform 2 of Antigen peptide transporter 2 [356], TAP2",0.57 log 2
same,L/H ratio of acetylated peptide YELTGK(ac)FER,"SEQ ID NO: 659, Annexin A6 [81], ANXA6",0.57 log 2
